In the experiment the target is T1, human orexin type 2 receptor (Homo sapiens, UniProt O43614).
T1 construct: expressed in transfected cells
T1 sequence (O43614 1-444): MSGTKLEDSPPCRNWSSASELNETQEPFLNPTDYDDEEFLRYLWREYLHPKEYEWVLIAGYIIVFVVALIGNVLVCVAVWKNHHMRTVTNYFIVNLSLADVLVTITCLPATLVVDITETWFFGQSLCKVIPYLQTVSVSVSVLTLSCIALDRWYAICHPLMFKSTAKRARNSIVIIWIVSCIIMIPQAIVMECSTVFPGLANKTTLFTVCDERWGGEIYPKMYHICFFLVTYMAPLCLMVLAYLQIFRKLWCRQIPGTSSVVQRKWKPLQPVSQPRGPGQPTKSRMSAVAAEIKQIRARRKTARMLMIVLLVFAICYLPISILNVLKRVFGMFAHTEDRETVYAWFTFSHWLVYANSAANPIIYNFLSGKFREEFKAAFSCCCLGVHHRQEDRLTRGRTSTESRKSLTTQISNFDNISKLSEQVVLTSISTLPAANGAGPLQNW
The experiment is described as follows: Measurement of orexin type 2 receptor agonist activity (calcium fluorescence, Fluo-4 AM, FDSS). The experiment is classed as cell-based. Particulars: test compound 3 μM; CHO cells expressing human OX2 receptor; DMSO = 0%, orexin A (human) = 100%. In outline: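 CHO-K1 cells stably expressing human OX2R were loaded with Fluo-4 AM (30 min 37 °C, 30 min RT) in HEPES-buffered HBSS with 0.1% BSA and probenecid. Calcium fluorescence was followed on FDSS for 2 min after compound addition; activity normalised to DMSO (0%) and 10 nM orexin A (100%).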

With `CS(=O)(=O)NC[C@H]1CCN1C(=O)[C@@H]1C[C@H]1c1ccccc1-c1c(F)cccc1F` [Example 370, N-({(2R)-1-[(1R,2R)-2-(2′,6′-difluoro[1,1′-biphenyl]-2-yl)cyclopropane-1-carbonyl]azetidin-2-yl}methyl)methanesulfonamide], the “OX2R agonist activity (3 μM, %)” value came out at 84%.

`CS(=O)(=O)NC[C@H]1CCN1C(=O)[C@@H]1C[C@@]1(F)c1ccccc1-c1c(F)cccc1F` [Example 371, N-({(2R)-1-[(1S,2S)-2-(2′,6′-difluoro[1,1′-biphenyl]-2-yl)-2-fluorocyclopropane-1-carbonyl]azetidin-2-yl}methyl)methanesulfonamide]: the “OX2R agonist activity (3 μM, %)” value was determined as 103%.

Turning to `C[C@@H]1CN(C(=O)[C@@H]2C[C@@]2(F)c2ccccc2-c2c(F)cccc2F)C[C@@H](CNS(C)(=O)=O)O1` [Example 372, N-({(2S,6R)-4-[(1S,2S)-2-(2′,6′-difluoro[1,1′-biphenyl]-2-yl)-2-fluorocyclopropane-1-carbonyl]-6-methylmorpholin-2-yl}methyl)methanesulfonamide], the “OX2R agonist activity (3 μM, %)” value turned out to be 95%.

Take `COCC1(NS(C)(=O)=O)CCN(C(=O)[C@@H]2C[C@@]2(F)c2ccccc2-c2c(F)cccc2F)C1` (stereo partly drawn) [Example 373, N-[(3R)-1-[(1S,2S)-2-(2′,6′-difluoro[1,1′-biphenyl]-2-yl)-2-fluorocyclopropane-1-carbonyl]-3-(methoxymethyl)pyrrolidin-3-yl]methanesulfonamide, or N-[(3S)-1-[(1S,2S)-2-(2′,6′-difluoro[1,1′-biphenyl]-2-yl)-2-fluorocyclopropane-1-carbonyl]-3-(methoxymethyl)pyrrolidin-3-yl]methanesulfonamide]: the “OX2R agonist activity (3 μM, %)” value amounted to 95%.

Take `CCS(=O)(=O)NC[C@@H]1[C@H](O)CN1C(=O)[C@@H]1C[C@@]1(F)c1ccccc1-c1c(F)cccc1F` [Example 374, N-({(2R,3R)-1-[(1S,2S)-2-(2′,6′-difluoro[1,1′-biphenyl]-2-yl)-2-fluorocyclopropane-1-carbonyl]-3-hydroxyazetidin-2-yl}methyl)ethanesulfonamide]: the “OX2R agonist activity (3 μM, %)” value was 98%.

For the molecule `CC1(NS(C)(=O)=O)CN(C(=O)[C@@H]2C[C@@]2(F)c2ccccc2-c2c(F)cccc2F)CC1(F)F` (stereo partly drawn) [Example 375, N-{(3R)-1-[(1S,2S)-2-(2′,6′-difluoro[1,1′-biphenyl]-2-yl)-2-fluorocyclopropane-1-carbonyl]-4,4-difluoro-3-methylpyrrolidin-3-yl}methanesulfonamide, or N-{(3S)-1-[(1S,2S)-2-(2′,6′-difluoro[1,1′-biphenyl]-2-yl)-2-fluorocyclopropane-1-carbonyl]-4,4-difluoro-3-methylpyrrolidin-3-yl}methanesulfonamide], the “OX2R agonist activity (3 μM, %)” value was determined as 92%.

With `CS(=O)(=O)NC1C2CN(C(=O)[C@@H]3C[C@@]3(F)c3ccccc3-c3c(F)cccc3F)CC2CC1(F)F` (stereo partly drawn) [Example 377, N-{(3aR,4S,6aS)-2-[(1S,2S)-2-(2′,6′-difluoro[1,1′-biphenyl]-2-yl)-2-fluorocyclopropane-1-carbonyl]-5,5-difluorooctahydrocyclopenta[c]pyrrol-4-yl}methanesulfonamide, or N-{(3aS,4R,6aR)-2-[(1S,2S)-2-(2′,6′-difluoro[1,1′-biphenyl]-2-yl)-2-fluorocyclopropane-1-carbonyl]-5,5-difluorooctahydrocyclopenta[c]pyrrol-4-yl}methanesulfonamide], the “OX2R agonist activity (3 μM, %)” value was determined as 93%.

As for `CS(=O)(=O)N[C@@H]1CN(C(=O)C2CC2c2c(-c3c(F)cccc3F)csc2F)CCC1(F)F` (stereo partly drawn) [Example 378, N-[(3R)-1-{(1R,2R)-2-[4-(2,6-difluorophenyl)-2-fluorothiophen-3-yl]cyclopropane-1-carbonyl}-4,4-difluoropiperidin-3-yl]methanesulfonamide, or N-[(3R)-1-{(1S,2S)-2-[4-(2,6-difluorophenyl)-2-fluorothiophen-3-yl]cyclopropane-1-carbonyl}-4,4-difluoropiperidin-3-yl]methanesulfonamide], the “OX2R agonist activity (3 μM, %)” value was 103%.

(Values after patent US20250250230A1, “HETEROCYCLIC COMPOUND” (TAKEDA PHARMACEUTICAL COMPANY LIMITED, priority 2022, published 2025).)
